According to patent publication US20090214637A1, “Novel Gene Therapy Approach For Treating The Metabolic Disorder Obesity” (NEUROLOGIX, INC., priority 2007, published 2009):

Key:
[1] = 2-DG induced food intake versus saline; format: in vivo, mice; conditions: over 4 h, compared to saline
Source text: FIG. 8A-B depicts the effect of Hip2 silencing on the response to 2-deoxy-D-glucose (2-DG) induced hypoglycemia.
Silencing of Hip2 was achieved by AAV vectors encoding the Hip2 small hairpin RNA (Hip2 shRNA) delivered into the VMN region of the brain via injection. AAV vectors encoding the luciferase shRNA were used as controls. […] Furthermore, reduction of Hip2 levels also had no effect on the ability of the VMN neurons to sense glucose levels in blood.

[2] = test system: dissociated VMN neurons; assay: Depolarization of dissociated VMN neurons by 17β-estradiol; format: cell-based, mice; conditions: 1 nM or 10 nM
[3] = test system: primary VMN neurons; assay: Number of glucose sensing neurons after estradiol, calcium imaging; format: cell-based; conditions: 1 nM, 24 h, primary VMN neurons from female rats
Protocol: Overexpression of ERα in a murine hypothalamic cell line […] (FIG. 9A-C) has led to upregulation of glucose sensing genes. In order to determine whether these effects are also dependent on estrogen, primary VMN neurons from female rats were treated 17-β-estradiol at physiological levels (1 nM) and the number of glucose sensing neurons were measured in 24 h using calcium imaging.

SMILES | food intake [1] | depolarization of cells with nuclear ERα staining [2] | depolarization of membrane ERα-immunoreactive cells ([2]; dissociated VMN neurons from postnatal female mice) | number of glucose-excited neurons [3]
O=CC[C@@H](O)[C@H](O)[C@H](O)CO [2-DG, 2-deoxy-D-glucose] | significantly increased food intake | – | – | –
C[C@]12CC[C@@H]3c4ccc(O)cc4CC[C@H]3[C@@H]1CC[C@@H]2O [17β-estradiol] | – | did not depolarize | majority of membrane ERα-immunoreactive cells depolarized | increased the number of glucose-excited neurons
